From article PMC7695835, “Pharmacological characterisation of novel adenosine A3 receptor antagonists” (Scientific Reports, 2020)
Residue numbers refer to the chain shown, from its start. Where two headings read alike, the source gives them in different places. Values belong to the compound of their own block, whether it stands above or below them.

Legend:
Human plasma stability = details: 1 μM compound
A2AR [1] = biological target: T1, A2AR (Homo sapiens, UniProt P29274); parameters: method as in Lagarias et al.[19]; details: 10 nM [3H]NECA; ref Lagarias et al.[19]; read-out: Radioligand binding Ki A2AR; cited from earlier work
T1 construct: expressed in transfected cells; host or cells: CHO cells, membrane preparation

physchem = details: PBS, pH 7.4
A1R [2] = biological target: T2, A1R (Homo sapiens, UniProt P30542); parameters: method as in Lagarias et al.[19]; details: 1 nM [3H]CCPA; ref Lagarias et al.[19]; read-out: Radioligand binding Ki A1R; cited from earlier work
T2 construct: expressed in transfected cells
T2 sequence (P30542 1-326): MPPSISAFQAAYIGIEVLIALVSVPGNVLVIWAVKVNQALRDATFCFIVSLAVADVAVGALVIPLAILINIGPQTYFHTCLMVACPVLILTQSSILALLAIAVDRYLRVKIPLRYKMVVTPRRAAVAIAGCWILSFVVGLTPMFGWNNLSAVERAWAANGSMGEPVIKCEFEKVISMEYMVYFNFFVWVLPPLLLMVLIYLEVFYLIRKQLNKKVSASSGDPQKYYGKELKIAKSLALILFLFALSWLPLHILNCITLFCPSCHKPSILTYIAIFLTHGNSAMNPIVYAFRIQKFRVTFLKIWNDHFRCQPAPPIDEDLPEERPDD

in vitro = details: human, plasma
[3] = Half-life in PBS (pH 7.4); details: PBS pH 7.4, 1 μM compound
A1R [4] = biological target: T2, A1R; assay: Radioligand binding at A1R ([3H]CCPA, CHO cell membranes); details: 1 nM [3H]CCPA; three independent experiments
Description: (§1) All pharmacological methods followed the procedures as described in the literature. In brief, membranes for radioligand binding were prepared from CHO cells stably transfected with hAR subtypes in a two-step procedure. In the first step, cell fragments and nuclei were removed at 1000×g and then the crude membrane fraction was sedimented from the supernatant at 100,000×g. The membrane pellet was resuspended in the buffer used for the respective binding experiments and it was frozen in liquid nitrogen and stored at – 80 °C. […] Ki values from competition experiments were calculated using Prism (GraphPad Software, La Jolla, CA, USA) assuming competitive interaction with a single binding site.

rat A3R = biological target: T3, rat A3R (Rattus norvegicus, UniProt P28647); assay: NanoBRET ligand-binding, Nluc-rat A3R HEK 293 cells, AV039 tracer
T3 sequence (P28647 1-320): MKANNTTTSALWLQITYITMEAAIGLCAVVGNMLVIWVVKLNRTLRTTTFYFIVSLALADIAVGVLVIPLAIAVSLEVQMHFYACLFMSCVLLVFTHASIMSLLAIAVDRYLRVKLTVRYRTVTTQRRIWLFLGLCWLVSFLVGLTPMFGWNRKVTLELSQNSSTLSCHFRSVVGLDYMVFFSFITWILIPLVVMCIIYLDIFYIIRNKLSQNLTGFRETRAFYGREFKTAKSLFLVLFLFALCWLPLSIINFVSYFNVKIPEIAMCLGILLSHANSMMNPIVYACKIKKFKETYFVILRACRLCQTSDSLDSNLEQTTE

A2AR [5] = biological target: T1, A2AR; assay: Radioligand binding at A2AR ([3H]NECA, CHO cell membranes); details: 10 nM [3H]NECA; three independent experiments
Description: as §1

A3R [6] = biological target: T4, A3R (Homo sapiens, UniProt P0DMS8); details: for cAMP accumulation Mean difference between 'NECA' and compound: 10 μM forskolin + NECA IC80 + 1 μM compound
T4 sequence (P0DMS8 1-318): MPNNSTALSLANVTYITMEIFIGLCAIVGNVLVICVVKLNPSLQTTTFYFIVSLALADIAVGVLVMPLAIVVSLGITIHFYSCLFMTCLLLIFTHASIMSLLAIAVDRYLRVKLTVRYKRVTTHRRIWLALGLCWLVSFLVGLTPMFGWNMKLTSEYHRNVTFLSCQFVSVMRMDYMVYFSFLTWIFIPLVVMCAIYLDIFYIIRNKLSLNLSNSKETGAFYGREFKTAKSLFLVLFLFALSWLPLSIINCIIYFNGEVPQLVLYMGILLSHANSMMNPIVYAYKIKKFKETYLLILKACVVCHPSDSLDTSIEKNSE

A3R [7] = biological target: T4, A3R; assay: Radioligand binding at A3R ([3H]HEMADO, CHO cell membranes); details: 1 nM [3H]HEMADO; three independent experiments
A3R [8] = biological target: T4, A3R; assay: HEMADO induced cAMP inhibition at the A3R; format: cell-based; details: HEMADO only
M177A A3R = biological target: T5, M177A A3R (Homo sapiens, UniProt P0DMS8, M177A); details: + DMSO
T5 sequence (P0DMS8 1-318 M177A): T4 sequence (P0DMS8 1-318) with M177A

L90A A3R = biological target: T6, L90A A3R (Homo sapiens, UniProt P0DMS8, L90A); details: + DMSO
T6 sequence (P0DMS8 1-318 L90A): T4 sequence (P0DMS8 1-318) with L90A

L264A A3R = biological target: T7, L264A A3R (Homo sapiens, UniProt P0DMS8, L264A); details: + DMSO
T7 sequence (P0DMS8 1-318 L264A): T4 sequence (P0DMS8 1-318) with L264A

I249A A3R = biological target: T8, I249A A3R (Homo sapiens, UniProt P0DMS8, I249A); details: + DMSO
T8 sequence (P0DMS8 1-318 I249A): T4 sequence (P0DMS8 1-318) with I249A

WT A3R [9] = biological target: T9, WT A3R (Homo sapiens, UniProt P0DMS8); assay: IB-MECA stimulated cAMP inhibition at WT A3R Flp-In-CHO, with Schild analysis; format: cell-based; details: IB-MECA only; difference between Emin and basal
T9 sequence (P0DMS8 1-318): T4 sequence (P0DMS8 1-318)

WT A3R [10] = biological target: T9, WT A3R; details: + DMSO
V169A A3R = biological target: T10, V169A A3R (Homo sapiens, UniProt P0DMS8, V169A); details: + DMSO
T10 sequence (P0DMS8 1-318 V169A): T4 sequence (P0DMS8 1-318) with V169A

A1R [11] = biological target: T2, A1R; assay: NECA stimulated cAMP inhibition in CHO-K1 cells expressing A1R; format: cell-based; details: NECA only
A3R [12] = biological target: T4, A3R; assay: NECA stimulated cAMP inhibition in A3R Flp-In CHO cells; format: cell-based; details: NECA only; lower plateau
[13] = 10 μM forskolin + NECA IC80 (3.16 nM) + 1 μM compound, mean ± SEM, n = 3

T1 sequence (P29274 whole entry): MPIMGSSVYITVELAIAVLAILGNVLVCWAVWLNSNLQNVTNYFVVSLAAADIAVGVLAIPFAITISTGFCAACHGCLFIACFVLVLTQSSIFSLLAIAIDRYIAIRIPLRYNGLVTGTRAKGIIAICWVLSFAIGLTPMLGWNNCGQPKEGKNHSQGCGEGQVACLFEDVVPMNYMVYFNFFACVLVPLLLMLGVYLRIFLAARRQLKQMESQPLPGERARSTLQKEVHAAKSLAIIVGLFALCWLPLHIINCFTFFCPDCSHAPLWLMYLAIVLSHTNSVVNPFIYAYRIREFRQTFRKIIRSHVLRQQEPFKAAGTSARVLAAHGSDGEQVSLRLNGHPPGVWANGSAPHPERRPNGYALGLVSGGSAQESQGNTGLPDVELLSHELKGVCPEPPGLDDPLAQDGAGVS

SMILES: CNC(=O)[C@H]1O[C@@H](n2cnc3c(NCc4cccc(I)c4)ncnc32)[C@H](O)[C@@H]1O [IB-MECA, (2S,3S,4R,5R)-3,4-dihydroxy-5-[6-[(3-iodophenyl)methylamino]purin-9-yl]-N-methyloxolane-2-carboxamide]
Basal (M177A A3R): 70.2 ± 2.0 %100 μM forskolin
Emin (M177A A3R): 38.6 ± 2.7 %100 μM forskolin
Span (M177A A3R): 31.6 ± 2.0
Basal (L90A A3R): 73.2 ± 2.7 %100 μM forskolin
Emin (L90A A3R): 43.3 ± 3.2 %100 μM forskolin
Span (L90A A3R): 29.9 ± 1.8
Basal (L264A A3R): 72.0 ± 2.3 %100 μM forskolin
Emin (L264A A3R): 41.1 ± 2.2 %100 μM forskolin
Span (L264A A3R): 30.9 ± 2.2
Basal (I249A A3R): 62.6 ± 2.7 %100 μM forskolin
Emin (I249A A3R): 34.9 ± 2.2 %100 μM forskolin
Span (I249A A3R): 27.7 ± 1.3
Span (WT A3R [9]): 116.1 ± 3.5
Basal (WT A3R [10]): 60.1 ± 0.9 %100 μM forskolin
Emin (WT A3R [10]): 35.0 ± 1.6 %100 μM forskolin
Span (WT A3R [10]): 25.1 ± 2.0
Basal (V169A A3R): 55.3 ± 2.4 %100 μM forskolin
Emin (V169A A3R): 30.9 ± 1.7 %100 μM forskolin

SMILES: CCNC(=O)[C@H]1O[C@@H](n2cnc3c(N)ncnc32)[C@H](O)[C@@H]1O [NECA]
Span (A1R [11]): 111.4 ±4.0
Emin (A1R [11]; lower plateau): -5.1 ±1.0 % forskolin response
Basal (A1R [11]; upper plateau): 107.5 ±3.4
Emin (A3R [12]): -5.02 ±2.4 % 10 µM forskolin response, relative to NECA
cAMP accumulation Mean (A3R [6]; 10 μM forskolin + NECA IC80 (3.16 nM), no test compound): 60.32 ± 3.41 %10 μM forskolin response

SMILES: CC(C)[N+](C)(CCOC(=O)C1c2ccccc2Oc2ccccc21)C(C)C [propantheline, reference compound]
half-life at 1 μM (physchem): > 4 h
half-life at 1 μM (in vitro): 0.917 h

Continued, in another order:

percentage remaining after 120 min (Human plasma stability): 90%
half-life at 1 μM (physchem): > 4 h
half-life at 1 μM (in vitro): > 2 h
percentage remaining at 240 min [3]: 87%
SMILES: Cc1nc(C(=N)NOC(=O)c2c(-c3c(Cl)cccc3Cl)noc2C)cs1 [Compound K18, O4-{[3-(2,6-dichlorophenyl)-5-methylisoxazol-4-yl]carbonyl}-2-methyl-1,3-thiazole-4-carbohydroximamide]
Ki (A2AR [1]): > 100 µM
Ki (A1R [2]): > 100 µM

Ki (A1R [4]): > 100 µM
binding at rat A3R (rat A3R; no binding detected below the concentration of 10 μM): very weak binding
pKi (rat A3R; rat A3R, 100 nM AV039, BRET ratio at 5 minutes, Cheng-Prusoff): 4.05 ± 0.10
Ki (A2AR [5]): > 100 µM
SMILES: Cc1onc(-c2ccccc2Cl)c1C(=O)O/N=C(\N)c1ccccn1 [Compound K32]

Ki (A1R [4]): > 100 µM
cAMP accumulation Mean (A3R [6]; [13]): 71.97 ±4.74 %10 μM forskolin response
cAMP accumulation Mean difference between 'NECA' and compound (A3R [6]): -11.65 %10 μM forskolin response
Ki (A2AR [5]): > 100 µM
Ki (A3R [7]): > 30 µM
SMILES: N/C(=N\OC(=O)c1ccccc1-c1ccccc1)c1cccnc1 [Compound K33]

Ki (A1R [4]): > 100 µM
cAMP accumulation Mean (A3R [6]; [13]): 61.96 ±1.51 %10 μM forskolin response
cAMP accumulation Mean difference between 'NECA' and compound (A3R [6]): -1.64 %10 μM forskolin response
Ki (A2AR [5]): > 100 µM
Ki (A3R [7]): > 100 µM
SMILES: N/C(=N\OC(=O)c1ccc(-c2ccccc2)cc1)c1ccc(Br)cc1 [Compound K36]

Span (A3R [8]): 107.3 ±4.7
IC50 (A3R [8]; 10 µM forskolin, n = 3, read-out: pIC50 of HEMADO (converted)): 28.8 pM
Emin (A3R [8]; lower plateau): -3.48 ±2.7 % 10 µM forskolin response
Basal (A3R [8]; upper plateau): 103.8 ±4.1
SMILES: CCCCC#Cc1nc(NC)c2ncn([C@@H]3O[C@H](CO)[C@@H](O)[C@H]3O)c2n1 [HEMADO, (2R,3R,4S,5R)-2-(2-hex-1-ynyl-6-methylaminopurin-9-yl)-5-(hydroxymethyl)oxolane-3,4-diol]
